Results published in patent US20070082877A1, “Difluoromethylbenzanilides and use thereof for combating micro-organisms, intermediate products and use thereof” (BAYER CORPSCIENCE AKTIENGESELLSCHAFT, priority 2003, published 2007).

Assay: log P determination by HPLC on reversed-phase column (C 18), EEC directive 79/831 Annex V.A8
Assay type: physicochemical
Conditions: reversed-phase HPLC column (C 18), acidic range pH 2.3, 43° C.
Procedure: The given log P values were determined in accordance with EEC directive 79/831 Annex V.A8 by HPLC (High Performance Liquid Chromatography) on a reversed-phase column (C 18). Temperature: 43° C. Mobile phases for the determination in the acidic range (pH 2.3): 0.1% aqueous phosphoric acid, acetonitrile; linear gradient from 10% acetonitrile to 90% acetonitrile. Calibration was carried out using unbranched alkan-2-ones (having 3 to 6 carbon atoms) with known log P values (determination of the log P values by the retention times using linear interpolation between two successive alkanones).

chromatographic logP: 4.38
Compound: CC(CC(C)(C)C)c1ccccc1NC(=O)c1ccccc1C(F)F (stereo not shown) [No. 1, 2-difluoromethyl-N-[2-(1,3,3-trimethylbutyl)phenyl]benzamide]
